Results on 21 molecules are retold here after patent US20240132519A1, “NRF2-ACTIVATING COMPOUND” (SENJU PHARMACEUTICAL CO., LTD., priority 2020, published 2024).

For the assay, the target named is binding between NRF2 and KEAP1 (Homo sapiens (Human), UniProt Q14145). As to the kind of experiment: Binding assay: inhibition of binding between NRF2 and KEAP1 by BRET (NanoLuc-NRF2 and KEAP1-HaloTag cell lysates). The note with it: Test Example 1-1; NRF2-KEAP1 BRET; N=2. As for the experimental part: The inhibitory activity of each compound on the binding between NRF2 and KEAP1 was measured by bioluminescence resonance energy transfer (BRET) assay. A plasmid having human NRF2 (Original Clone ID: ha01449s1) sequence fused with NanoLuc (19 kDa, Promega) at the N-terminal was transduced into HCE-T cells (immortalized human corneal epithelial cells) using FuGENE HD (Promega). 48 hours after transduction, the cell lysate was collected and used as an NRF2-expressing cell lysate. A plasmid having human KEAP1 (Original Clone ID: cs00328) sequence fused with HaloTag (33 kDa, Promega) at the C-terminal was transduced into HCE-T cells using FuGENE HD (Promega). After 24 hours, HaloTag Nano BRET 618 Ligand (Promega) was added to the medium. The cell lysate cultured for 24 hours after the addition was used as a KEAP1-expressing cell lysate.
Chain of binding between NRF2 and KEAP1 (Q14145 whole entry, the tested form may be a part): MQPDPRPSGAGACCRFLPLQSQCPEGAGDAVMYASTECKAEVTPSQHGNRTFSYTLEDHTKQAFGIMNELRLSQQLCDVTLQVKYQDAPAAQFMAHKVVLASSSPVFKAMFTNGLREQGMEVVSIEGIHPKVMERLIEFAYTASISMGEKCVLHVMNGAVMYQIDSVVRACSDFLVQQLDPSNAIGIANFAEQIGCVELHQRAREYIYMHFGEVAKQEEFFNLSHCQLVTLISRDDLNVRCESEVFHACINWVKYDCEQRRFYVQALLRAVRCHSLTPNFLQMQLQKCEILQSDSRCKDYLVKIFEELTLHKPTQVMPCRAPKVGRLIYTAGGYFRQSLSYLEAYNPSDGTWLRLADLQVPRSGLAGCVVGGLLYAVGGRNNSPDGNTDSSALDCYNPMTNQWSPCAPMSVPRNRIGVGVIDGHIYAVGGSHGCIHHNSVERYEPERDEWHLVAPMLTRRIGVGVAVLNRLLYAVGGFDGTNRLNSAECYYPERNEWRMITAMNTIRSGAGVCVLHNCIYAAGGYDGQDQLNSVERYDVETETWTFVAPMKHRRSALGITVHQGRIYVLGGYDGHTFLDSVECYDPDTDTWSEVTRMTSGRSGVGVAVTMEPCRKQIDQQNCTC
The NRF2-expressing cell lysate and the KEAP1-expressing cell lysate were adjusted so that the luminescence and fluorescence intensities per well were constant. Tables 1 and 2 show the formulation of each reaction solution.
Each test substance at a concentration 100 times higher than the test concentration was dissolved in dimethylsulfoxide for adjustment. 49 μL of KEAP1 solution was added to a 96-well polystyrene microplate (FALCON) to which 1 μL of each test substance solution was added, followed by incubation for 15 minutes. Then, 50 μL of NRF2 solution was added to the above solution, followed by incubation for 1 hour. To measure the binding between NRF2 and KEAP1, NanoBRET Nano-Glo Substrate (Promega) diluted with Opti-Mem (Thermo Fisher Scientific) was added, followed by shaking for 30 seconds. Then, luminescence and fluorescence were measured using the GloMax Discover System (Promega). A 495-nm short pass filter and a 600-nm long pass filter were respectively used to measure donor and acceptor emission values. A value obtained by dividing the acceptor emission value by the donor emission value was regarded as BRET value. A BRET value when the compound was not added, and a BRET value when the KEAP1 solution was not added were respectively used as binding rates of 100% and 0%, and the binding rate when the compound was added was calculated. Further, using this binding rate, the 50% binding inhibitory activity concentration (IC50) was calculated from the following formula. The test was performed at N=2.
IC50(M)=10^(LOG(A/B)×(50−C)/(D−C)+LOG(B)) • A: higher concentration out of 2 close concentrations across the inhibition rate of 50% • B: lower concentration out of 2 close concentrations across the inhibition rate of 50% • C: inhibition rate at B • D: inhibition rate at A
Compounds A1/A2, compounds B1/B2, compounds C1/C2, and compounds D1/D2 were used as test substances. Binding assay and reporter assay were performed as in Test Example 1-1 and Test Example 1-2.
By IC50 is commonly meant the concentration that inhibits the measured activity by half. A low value points to greater potency. In the case of “3-(3-{[(R)-4-ethyl-1,1-dioxide-3,4-dihydro-2H-benzo[b][1,4,5]oxathiazepin-2-yl]methyl}-4-methylphenyl)-3-(5-sulfamoylthiophen-2-yl)propanoic acid [Compound 18]”, the IC50 amounted to 35 nM. For “3-[5-(cyclopropanecarbonyl)thiophen-2-yl]-3-(3-{[(R)-4-ethyl-1,1-dioxide-3,4-dihydro-2H-benzo[b][1,4,5]oxathiazepin-2-yl]methyl}-4-methylphenyl)propanoic acid [Compound 20]”, the IC50 is 24 nM. On to `CC[C@@H]1CN(Cc2cc(C(c3ccc(C(C)=O)s3)C(C)C(=O)O)ccc2C)S(=O)(=O)c2ccccc2O1` (stereo partly drawn) [Compound 1, 3-(5-acetylthiophen-2-yl)-3-(3-{[(R)-4-ethyl-1,1-dioxide-3,4-dihydro-2H-benzo[b][1,4,5]oxathiazepin-2-yl]methyl}-4-methylphenyl)-2-methylpropanoic acid], for which the IC50 was 0.24 nM. With `CC[C@@H]1CN(Cc2cc(C(c3cc(C(C)=O)cs3)C(C)C(=O)O)ccc2C)S(=O)(=O)c2ccccc2O1` (stereo partly drawn) [Compound 3, 3-(4-acetylthiophen-2-yl)-3-(3-{[(R)-4-ethyl-1,1-dioxide-3,4-dihydro-2H-benzo[b][1,4,5]oxathiazepin-2-yl]methyl}-4-methylphenyl)-2-methylpropanoic acid] the figure was 0.17 nM; with `CC[C@@H]1CN(Cc2cc(C(c3cc(OC)c(C(C)=O)s3)C(C)(C)C(=O)O)ccc2C)S(=O)(=O)c2ccccc2O1` (stereo partly drawn) [Compound 4, 3-(5-acetyl-4-methoxythiophen-2-yl)-3-(3-{[(R)-4-ethyl-1,1-dioxide-3,4-dihydro-2H-benzo[b][1,4,5]oxathiazepin-2-yl]methyl}-4-methylphenyl)-2,2-dimethylpropanoic acid], 0.41 nM. As to `CC[C@@H]1CN(Cc2cc(C(CC(=O)O)c3ccc(C(C)=O)s3)ccc2C)S(=O)(=O)c2ccccc2O1` (stereo partly drawn) [Compound 5, 3-(5-acetylthiophen-2-yl)-3-(3-{[(R)-4-ethyl-1,1-dioxide-3,4-dihydro-2H-benzo[b][1,4,5]oxathiazepin-2-yl]methyl}-4-methylphenyl)propanoic acid], the IC50 amounted to 0.23 nM.

Molecule `CC[C@@H]1CN(Cc2cc(C(c3ccc(C(C)=O)s3)C(C)(C)C(=O)O)ccc2C)S(=O)(=O)c2ccccc2O1` (stereo partly drawn) [Compound 6, 3-(5-acetylthiophen-2-yl)-3-(3-{[(R)-4-ethyl-1,1-dioxide-3,4-dihydro-2H-benzo[b][1,4,5]oxathiazepin-2-yl]methyl}-4-methylphenyl)-2,2-dimethylpropanoic acid] registered an IC50 of 0.27 nM. To `CC[C@@H]1CN(Cc2cc(C(CC(=O)O)c3cc(C)c(C(C)=O)s3)ccc2C)S(=O)(=O)c2ccccc2O1` (stereo partly drawn) [Compound 7, 3-(5-acetyl-4-methylthiophen-2-yl)-3-(3-{[(R)-4-ethyl-1,1-dioxide-3,4-dihydro-2H-benzo[b][1,4,5]oxathiazepin-2-yl]methyl}-4-methylphenyl)propanoic acid] belongs 0.36 nM; to `CC[C@@H]1CN(Cc2cc(C(CC(=O)O)c3cc(F)c(C(C)=O)s3)ccc2C)S(=O)(=O)c2ccccc2O1` (stereo partly drawn) [Compound 8, 3-(5-acetyl-4-fluorothiophen-2-yl)-3-(3-{[(R)-4-ethyl-1,1-dioxide-3,4-dihydro-2H-benzo[b][1,4,5]oxathiazepin-2-yl]methyl}-4-methylphenyl)propanoic acid], 0.36 nM.

Consider `CC[C@@H]1CN(Cc2cc(C(c3ccc(C(C)=O)s3)C(C)(C)C(=O)O)ccc2C)S(=O)(=O)c2c(F)cccc2O1` (stereo partly drawn) [Compound 9, 3-(5-acetylthiophen-2-yl)-3-(3-{[(R)-4-ethyl-9-fluoro-1,1-dioxide-3,4-dihydro-2H-benzo[b][1,4,5]oxathiazepin-2-yl]methyl}-4-methylphenyl)-2,2-dimethylpropanoic acid], for which the IC50 came to 0.3 nM. The molecule `CC[C@@H]1CN(Cc2cc(C(CC(=O)O)c3cc(C(C)=O)cs3)ccc2C)S(=O)(=O)c2ccccc2O1` (stereo partly drawn) [Compound 10, 3-(4-acetylthiophen-2-yl)-3-(3-{[(R)-4-ethyl-1,1-dioxide-3,4-dihydro-2H-benzo[b][1,4,5]oxathiazepin-2-yl]methyl}-4-methylphenyl)propanoic acid] yielded an IC50 of 0.3 nM.

Consider `CC[C@@H]1CN(Cc2cc(C(c3cc(F)c(C(C)=O)s3)C(C)(C)C(=O)O)ccc2C)S(=O)(=O)c2ccccc2O1` (stereo partly drawn) [Compound 11, 3-(5-acetyl-4-fluorothiophen-2-yl)-3-(3-{[(R)-4-ethyl-1,1-dioxide-3,4-dihydro-2H-benzo[b][1,4,5]oxathiazepin-2-yl]methyl}-4-methylphenyl)-2,2-dimethylpropanoic acid], for which the IC50 worked out at 0.23 nM. To `CC(=O)c1ccc(C(c2ccc(C)c(CN3C[C@@H](C)Oc4ccccc4S3(=O)=O)c2)C(C)(C)C(=O)O)s1` (stereo partly drawn) [Compound 12, 3-(5-acetylthiophen-2-yl)-2,2-dimethyl-3-(4-methyl-3-{[(R)-4-methyl-1,1-dioxide-3,4-dihydro-2H-benzo[b][1,4,5]oxathiazepin-2-yl]methyl}phenyl)propanoic acid] belongs 0.28 nM; to `CC(=O)c1ccc(C(c2ccc(C)c(CN3CC(CCOCc4ccccc4)Oc4ccccc4S3(=O)=O)c2)C(C)C(=O)O)s1` (stereo not drawn) [Compound 13, 3-(5-acetylthiophen-2-yl)-3-[3-({4-[2-(benzyloxy)ethyl]-1,1-dioxide-3,4-dihydro-2H-benzo[b][1,4,5]oxathiazepin-2-yl}methyl)-4-methylphenyl]-2-methylpropanoic acid], 0.5 nM.

`CC[C@@H]1CN(Cc2cc(C(CC(=O)O)c3sc(C(C)=O)cc3C)ccc2C)S(=O)(=O)c2ccccc2O1` (stereo partly drawn) [Compound 14, 3-(5-acetyl-3-methylthiophen-2-yl)-3-(3-{[(R)-4-ethyl-1,1-dioxide-3,4-dihydro-2H-benzo[b][1,4,5]oxathiazepin-2-yl]methyl}-4-methylphenyl)propanoic acid]: the IC50 came to 1.3 nM. With `CC[C@@H]1CN(Cc2cc(C(CC(=O)O)c3csc(C(C)=O)c3)ccc2C)S(=O)(=O)c2ccccc2O1` (stereo partly drawn) [Compound 15, 3-(5-acetylthiophen-3-yl)-3-(3-{[(R)-4-ethyl-1,1-dioxide-3,4-dihydro-2H-benzo[b][1,4,5]oxathiazepin-2-yl]methyl}-4-methylphenyl)propanoic acid] the figure was 1.4 nM. With `CC[C@@H]1CN(Cc2cc(C(c3ccc(C(C)=O)s3)C(C)C(=O)O)ccc2C)S(=O)(=O)c2cnccc2O1` (stereo partly drawn) [Compound 16, 3-(5-acetylthiophen-2-yl)-3-(3-{[(R)-4-ethyl-1,1-dioxide-3,4-dihydro-2H-pyrido[4,3-b][1,4,5]oxathiazepin-2-yl]methyl}-4-methylphenyl)-2-methylpropanoic acid] the figure was 0.2 nM. With `CC[C@@H]1CN(Cc2cc(C(CC(=O)O)c3cccs3)ccc2C)S(=O)(=O)c2ccccc2O1` (stereo partly drawn) [Compound 17, 3-(3-{[(R)-4-ethyl-1,1-dioxide-3,4-dihydro-2H-benzo[b][1,4,5]oxathiazepin-2-yl]methyl}-4-methylphenyl)-3-(thiophen-2-yl)propanoic acid] the figure was 28 nM; with `CC[C@@H]1CN(Cc2cc(C(CC(=O)O)c3ccc(C#N)s3)ccc2C)S(=O)(=O)c2ccccc2O1` (stereo partly drawn) [Compound 19, 3-(5-cyanothiophen-2-yl)-3-(3-{[(R)-4-ethyl-1,1-dioxide-3,4-dihydro-2H-benzo[b][1,4,5]oxathiazepin-2-yl]methyl}-4-methylphenyl)propanoic acid], 3.1 nM. Take `CC[C@@H]1CN(Cc2cc(C(CC(=O)O)c3ccc(C(=O)NC)s3)ccc2C)S(=O)(=O)c2ccccc2O1` (stereo partly drawn) [Compound 21, 3-(3-{[(R)-4-ethyl-1,1-dioxide-3,4-dihydro-2H-benzo[b][1,4,5]oxathiazepin-2-yl]methyl}-4-methylphenyl)-3-[5-(methylcarbamoyl)thiophen-2-yl]propanoic acid]: the IC50 was 4.6 nM. The IC50 values of the last two molecules are within 1.5-fold of each other.

For `CC[C@@H]1CN(Cc2cc(C(CC(=O)O)c3csc(C(=O)NC)c3)ccc2C)S(=O)(=O)c2ccccc2O1` (stereo partly drawn) [Compound 22, 3-(3-{[(R)-4-ethyl-1,1-dioxide-3,4-dihydro-2H-benzo[b][1,4,5]oxathiazepin-2-yl]methyl}-4-methylphenyl)-3-[5-(methylcarbamoyl)thiophen-3-yl]propanoic acid], the IC50 is 6.1 nM.
